{"source": "patent US11912755B2", "about": "“Endostatin fragments and variants for use in treating fibrosis” (iBio, Inc., priority 2015, dated 2024)", "key": {"MMP-1": {"test_system": "MMP-1", "assay": "Genes regulated by E4: MMP-1", "format": "cell-based, human", "settings": "HuF-T; RT-qPCR, protein expression levels, zymography, MMP-1 activity assay", "procedure": "(§1) Several experiments have been performed to identify the mechanisms by which E4 exerts its anti-fibrotic activity. Real-time quantitative PCR (qPCR)-based arrays were performed on RNA extracted from primary human lung fibroblasts or mouse lung tissue stimulated with various fibrotic triggers in the absence and presence of E4 treatment in order to identify genes influenced by the endostatin peptide.\n(§2) The arrays identified several genes that have been previously implicated in fibrosis to be influenced by E4 treatment. These genes included connective tissue growth factor (CTGF), insulin-like growth factor binding protein (IGFBP)-3, matrix metalloproteases (MMP)-1 and MMP-3, urokinase plasminogen activator (uPA), plasminogen activator inhibitor (PAI)-1, and hepatocyte growth factor (HGF) with levels either decreased or increased in the presence of E4 as shown in TABLE 5."}, "[1]": {"test_system": "bleomycin induced lung fibrosis", "assay": "Bleomycin-induced pulmonary fibrosis in mice (E4)", "format": "in vivo, mouse", "procedure": "FIG. 10A-10C. E4 attenuates bleomycin induced lung fibrosis in vivo. FIG. 10A: Sixty μg of bleomycin was administrated intratracheally in combination with DMSO as a vehicle (Bleo) or E-4 (Bleo+E-4; 10 μg/ml). In some mice, E-4 (10 μg/ml) was administered intratracheally (IT) three days following bleomycin treatment (Bleo+E-4L). PBS was used as a vehicle for bleomycin (V). Lungs were harvested 10 days post-treatment. Representative images stained with H&E (left panel) and Masson trichrome (right panel) are representative of 3 independent experiments. Magnification, 100×. […] FIG. 10B: Quantification of acid soluble collagen obtained from mouse lungs treated with V. Bleo, Bleo+E-4, and Bleo+E-4L. The levels of collagen are presented as μg/mg (lung) from three independent experiments. Unpaired-t test was used for statistical analysis. *P<0.05. […] FIG. 10C: Lower magnification (2×) of mouse lung shown in FIG. 9 (BLM+E4/E4L IT day 10). For Bleo+E4L, Bleo was administered first, then there was a lag of three days between Bleo and E4 administration).\nFIG. 11. […]\nE4, a peptide representing the carboxy terminus of human endostatin, can attenuate fibrosis triggered by multiple fibrogenic factors. The anti-fibrotic effects of E4 can be detected whether administered concomitantly with or following the fibrogenic trigger. […]\nFor these studies, fibrosis was assessed by measurement of dermal thickness on H&E skin sections (skin), assessment of collagen levels by Masson Trichrome staining (skin and lung), and measurement of collagen levels by Sircol assay (lung). Furthermore, to confirm the mechanism by which E4 exerts its anti-fibrotic effects, the production of extra-cellular matrix (ECM) components, the levels of enzymes that promote matrix stabilization and thus accumulation and levels of those that degrade ECM components, and levels of transcription factors downstream of the pro-fibrotic triggers were evaluated. Results were assessed using the unpaired t test and the 3-way ANOVA (for the ID1 data)."}, "[2]": {"test_system": "human primary lung fibroblasts", "assay": "Western blot of FN, Col1α1 and α-SMA in primary lung fibroblasts", "format": "cell-based", "procedure": "Primary Fibroblast Culture. Human primary lung and skin fibroblasts were cultured. The explanted lungs of normal organ donors, patients with SSc or IPF, and clinically involved skin of SSc patients, a morphea patient and healthy donors were used for primary fibroblast culture. Approximately 2-cm pieces of peripheral lung and skin were minced and fibroblasts were cultured in Dulbecco's modified Eagle's medium (DMEM; Mediatech, Herndon, Va.) supplemented with 10% FBS, penicillin, streptomycin, and anti-mycotic agent, as previously described (Feghali et al., Arthritis Rheum 1999; 42:1451-7). All the cells were used between passages 3-6.\nWestern Blot Analysis. Cellular lysates were obtained from cultured fibroblasts as previously described (Pilewski et al., Am J Pathol 2005; 166:399-407). Briefly, 2.0×10^5 primary fibroblasts were cultured in 35-mm wells in 0.5% FBS-containing medium supplemented with 10 ng/ml of human recombinant TGF-β or PBS as vehicle control for 24 h, […] In some experiments, endostatin peptides were used without TGF-β stimulation. Cellular lysates were analyzed by Western blot. Signals were detected following incubation with horseradish peroxidase-conjugated secondary antibody and chemiluminescence (Perkin Elmer Life Sciences, Inc., Boston, Mass.). The intensity of individual bands with expected molecular sizes was semi-quantitatively analyzed using the image/J® software available at on the Internet (/rsb.info.nih.gov/ij/index.html), and normalized to individual GAPDH intensity."}, "HGF": {"test_system": "HGF", "assay": "Genes regulated by E4: HGF", "format": "cell-based, human", "settings": "HuF-T and mouse bleomycin model of pulmonary fibrosis; RT-qPCR, protein expression", "procedure": "as §1, §2"}, "human skin explants": {"test_system": "human skin explants", "settings": "single dose concurrently with TGF-β; cited from earlier work"}, "lysyl oxidase (LOX)": {"test_system": "lysyl oxidase (LOX)", "assay": "LOX immunohistochemistry in lung sections of bleomycin-treated mice", "format": "in vivo, mouse", "settings": "bleomycin with or without E4", "description": "FIG. 12. […] Lung sections of mice treated with BLM with or without E4 were used in immunohistochemistry to detect LOX. The sections shown are control IgG, phosphate buffered saline, bleomycin and bleomycin followed by treatment with E4."}, "[3]": {"settings": "IPF fibroblasts, 5, 10 and 20 μg/ml, vs vehicle control"}}, "note": "Entries after “also recorded” stand apart in the source; their conditions may differ. Ends that are not written are not given here.", "data": [{"substance": "E4: SEQ ID NO: 21, amino acids 133-180 of human endostatin with a C-terminal amide (SYCETWRTEAPSATGQASSLLGGRLLGQSAASCHHAYIVLCIENSFMT-NH2; cysteine pairing not given here)", "values": [{"measurement": "Effect of E4 peptide on MMP-1", "setting": "MMP-1", "value": "induces; also recorded: Increase; also recorded: increased levels and activity"}, {"measurement": "fibrosis and Masson Trichrome staining in lung", "setting": "[1]; E4 10 μg/ml IT concomitantly with or three days following bleomycin, day 10", "value": "marked reduction"}, {"measurement": "collagen levels in mouse lungs", "setting": "[1]; E4 given 3 days after bleomycin, acid soluble collagen", "value": "significantly reduced"}, {"measurement": "bleomycin induced lung fibrosis on day 21", "setting": "[1]; bleomycin IT day 1, E4 IP or IT at day 3", "value": "significant attenuation"}, {"measurement": "Col1α1 levels", "setting": "[2]; [3]", "value": "dose-dependently reduced"}, {"measurement": "FN levels", "setting": "[2]; [3]", "value": "modest effect"}, {"measurement": "FN and Col1α1 levels", "setting": "[2]; fibrotic (IPF) lung fibroblasts, absence of TGF-β stimulation", "value": "decreased"}, {"measurement": "FN and Col1α1 levels", "setting": "[2]; normal human lung fibroblasts, TGF-β 24 h, then 5 μg/ml for 48 h", "value": "significantly suppressed"}, {"measurement": "TGF-β-induced α-SMA levels", "setting": "[2]; normal lung fibroblasts", "value": "decreased"}, {"measurement": "Effect of E4 peptide on HGF", "setting": "HGF", "value": "induces conversion of pro-HGF to its active chains; also recorded: Increase"}, {"measurement": "collagen increase", "setting": "human skin explants", "value": "skin thickness and attenuated"}, {"measurement": "skin thickness", "setting": "human skin explants", "value": "TGF-β, significantly decreased"}, {"measurement": "LOX levels in lung", "setting": "lysyl oxidase (LOX)", "value": "reduces levels; also recorded: reducing levels"}]}]}
